Holding throughout (experiment): Caliper Mobility Shift Assay, kinase inhibition
Common to all, as to type: biochemical
Conditions in all cases: ATP by Km value

The target of one test is JAK2 (Homo sapiens, UniProt O60674).
The next test has as its target T1, JAK3 (Homo sapiens, UniProt P52333).
T1 sequence (P52333 1-1124): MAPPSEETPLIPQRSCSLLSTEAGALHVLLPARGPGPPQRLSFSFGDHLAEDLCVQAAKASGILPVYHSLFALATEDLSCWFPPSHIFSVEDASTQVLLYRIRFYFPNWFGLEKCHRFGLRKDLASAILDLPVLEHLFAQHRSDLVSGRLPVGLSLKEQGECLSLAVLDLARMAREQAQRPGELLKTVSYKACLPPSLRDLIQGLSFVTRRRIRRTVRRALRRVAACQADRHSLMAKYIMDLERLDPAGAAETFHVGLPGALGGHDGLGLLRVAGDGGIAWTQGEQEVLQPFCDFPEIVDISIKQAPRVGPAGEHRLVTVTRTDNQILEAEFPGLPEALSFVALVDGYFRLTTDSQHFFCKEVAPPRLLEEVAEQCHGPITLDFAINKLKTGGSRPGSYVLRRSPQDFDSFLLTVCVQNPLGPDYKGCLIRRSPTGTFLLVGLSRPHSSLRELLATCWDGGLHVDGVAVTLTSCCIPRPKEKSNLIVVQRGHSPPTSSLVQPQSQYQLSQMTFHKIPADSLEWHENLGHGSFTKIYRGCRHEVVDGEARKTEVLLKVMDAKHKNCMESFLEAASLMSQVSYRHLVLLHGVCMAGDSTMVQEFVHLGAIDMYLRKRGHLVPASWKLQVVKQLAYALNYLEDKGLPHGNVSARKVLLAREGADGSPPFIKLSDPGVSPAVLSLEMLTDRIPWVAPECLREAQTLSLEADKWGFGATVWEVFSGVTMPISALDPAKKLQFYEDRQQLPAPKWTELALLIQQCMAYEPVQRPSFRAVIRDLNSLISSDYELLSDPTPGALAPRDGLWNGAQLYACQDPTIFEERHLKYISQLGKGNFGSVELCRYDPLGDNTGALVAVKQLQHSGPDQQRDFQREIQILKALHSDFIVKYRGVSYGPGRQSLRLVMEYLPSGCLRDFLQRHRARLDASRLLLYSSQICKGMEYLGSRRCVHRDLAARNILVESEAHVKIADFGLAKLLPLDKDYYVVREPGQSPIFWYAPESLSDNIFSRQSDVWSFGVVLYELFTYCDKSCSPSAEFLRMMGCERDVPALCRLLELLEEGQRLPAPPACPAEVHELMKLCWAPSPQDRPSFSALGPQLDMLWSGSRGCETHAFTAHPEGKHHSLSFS

The target in a further test is JAK1 (Homo sapiens, UniProt P23458).
Sequence of JAK1 (P23458 whole entry, species assumed): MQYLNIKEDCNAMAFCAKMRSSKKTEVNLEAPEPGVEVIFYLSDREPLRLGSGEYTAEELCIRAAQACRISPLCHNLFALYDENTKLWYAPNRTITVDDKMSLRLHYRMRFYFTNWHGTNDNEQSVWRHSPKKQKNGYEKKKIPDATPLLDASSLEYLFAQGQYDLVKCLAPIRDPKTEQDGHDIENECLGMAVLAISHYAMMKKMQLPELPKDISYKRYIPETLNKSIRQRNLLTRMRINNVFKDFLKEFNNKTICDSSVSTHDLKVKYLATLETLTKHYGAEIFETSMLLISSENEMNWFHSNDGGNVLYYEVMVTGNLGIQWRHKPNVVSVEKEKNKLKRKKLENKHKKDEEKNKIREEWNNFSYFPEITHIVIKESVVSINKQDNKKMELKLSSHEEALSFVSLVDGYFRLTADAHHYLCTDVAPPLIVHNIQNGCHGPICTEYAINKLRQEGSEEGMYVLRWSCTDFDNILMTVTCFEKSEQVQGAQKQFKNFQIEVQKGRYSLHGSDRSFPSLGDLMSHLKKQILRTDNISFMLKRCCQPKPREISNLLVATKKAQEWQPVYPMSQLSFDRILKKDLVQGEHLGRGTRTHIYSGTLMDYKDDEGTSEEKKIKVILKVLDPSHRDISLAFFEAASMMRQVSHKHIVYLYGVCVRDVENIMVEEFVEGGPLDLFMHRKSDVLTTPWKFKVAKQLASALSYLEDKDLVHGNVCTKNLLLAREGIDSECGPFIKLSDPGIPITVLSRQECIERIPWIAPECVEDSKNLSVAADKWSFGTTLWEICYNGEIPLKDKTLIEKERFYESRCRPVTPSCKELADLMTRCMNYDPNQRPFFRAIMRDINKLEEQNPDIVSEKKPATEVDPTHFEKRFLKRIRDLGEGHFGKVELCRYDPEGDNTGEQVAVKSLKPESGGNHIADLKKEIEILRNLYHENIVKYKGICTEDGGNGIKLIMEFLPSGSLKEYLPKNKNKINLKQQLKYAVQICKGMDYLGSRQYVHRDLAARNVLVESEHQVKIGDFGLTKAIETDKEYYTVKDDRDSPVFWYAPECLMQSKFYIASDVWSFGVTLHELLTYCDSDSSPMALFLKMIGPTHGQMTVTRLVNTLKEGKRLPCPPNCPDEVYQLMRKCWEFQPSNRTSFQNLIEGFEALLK

Sequence of JAK2 (O60674 whole entry, species assumed): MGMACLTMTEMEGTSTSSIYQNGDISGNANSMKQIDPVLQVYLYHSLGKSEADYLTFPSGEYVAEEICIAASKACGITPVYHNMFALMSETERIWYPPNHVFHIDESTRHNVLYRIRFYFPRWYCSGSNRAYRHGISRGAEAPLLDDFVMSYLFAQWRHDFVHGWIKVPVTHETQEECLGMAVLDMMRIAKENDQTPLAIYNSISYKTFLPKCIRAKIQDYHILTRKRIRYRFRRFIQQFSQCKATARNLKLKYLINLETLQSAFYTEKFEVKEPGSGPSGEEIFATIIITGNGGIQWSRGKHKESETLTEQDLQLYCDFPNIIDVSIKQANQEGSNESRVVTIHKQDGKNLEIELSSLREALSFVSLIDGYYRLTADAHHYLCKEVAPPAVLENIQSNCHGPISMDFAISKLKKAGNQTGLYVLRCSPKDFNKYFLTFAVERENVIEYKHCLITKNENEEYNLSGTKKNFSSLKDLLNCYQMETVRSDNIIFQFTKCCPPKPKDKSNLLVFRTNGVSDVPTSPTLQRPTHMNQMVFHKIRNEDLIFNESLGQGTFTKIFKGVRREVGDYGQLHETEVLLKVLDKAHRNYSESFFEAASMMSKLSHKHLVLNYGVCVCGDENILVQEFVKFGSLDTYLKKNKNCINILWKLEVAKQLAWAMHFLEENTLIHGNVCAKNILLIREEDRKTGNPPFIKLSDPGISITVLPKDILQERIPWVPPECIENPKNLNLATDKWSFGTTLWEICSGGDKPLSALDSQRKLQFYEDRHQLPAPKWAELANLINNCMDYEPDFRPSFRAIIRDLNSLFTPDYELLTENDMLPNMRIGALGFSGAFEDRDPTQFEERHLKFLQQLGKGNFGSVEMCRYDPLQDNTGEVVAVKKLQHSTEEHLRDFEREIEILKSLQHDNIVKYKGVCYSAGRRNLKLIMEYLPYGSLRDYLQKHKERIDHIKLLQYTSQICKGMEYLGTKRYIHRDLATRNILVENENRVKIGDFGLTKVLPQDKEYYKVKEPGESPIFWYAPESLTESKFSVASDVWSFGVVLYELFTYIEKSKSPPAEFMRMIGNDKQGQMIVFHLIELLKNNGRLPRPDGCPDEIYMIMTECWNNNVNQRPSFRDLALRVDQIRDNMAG

Usually IC50 stands for the concentration that gives 50% inhibition. `CCS(=O)(=O)N1CC(CC#N)(n2cc(-c3ncnc4[nH]ccc34)c3ccc(CC(F)(F)F)cc32)C1` [Example 53, 2-(1-(ethylsulfonyl)-3-(6-trifluoroethyl-3-(7H-pyrrole[2,3-d]pyrimidine-4-yl)-1H-indole-1-yl)azetidine-3-yl)acetonitrile]: the concentration for half-maximal inhibition (IC50) came out at 1.4 nM at JAK2, 17 nM on JAK3 and 5.4 nM on JAK1.

As for `CCS(=O)(=O)N1CC(CC#N)(n2cc(-c3ncnc4[nH]ccc34)c3ccc(C)cc32)C1` [Example 54, 2-(1-(ethylsulfonyl)-3-(6-methyl-3-(7H-pyrrole[2,3-d]pyrimidine-4-yl)-1H-indole-1-yl)azetidine-3-yl)acetonitrile], the IC50 amounted to 2.5 nM on JAK2, 36 nM on JAK3 and 15.2 nM at JAK1.

With `CCS(=O)(=O)N1CC(CC#N)(n2cc(-c3ncnc4[nH]ccc34)c3ccc(Br)cc32)C1` [Example 31, 2-(1-(ethylsulfonyl)-3-(6-bromo-3-(7H-pyrrole[2,3-d]pyrimidine-4-yl)-1H-indole-1-yl)azetidine-3-yl)acetonitrile], the IC50 on JAK2 stood at 8.3 nM; on JAK3, 21 nM; on JAK1, 3.5 nM.

Turning to `CCS(=O)(=O)N1CC(CC#N)(n2cc(-c3ncnc4[nH]ccc34)c3c(F)ccc(F)c32)C1` [Example 48, 2-(1-(ethylsulfonyl)-3-(5,8-difluoro-3-(7H-pyrrole[2,3-d]pyrimidine-4-yl)-1H-indole-1-yl)azetidine-3-yl)acetonitrile], the 50% inhibitory concentration (IC50) at JAK2 turned out to be 4.6 nM; at JAK3 it was 72 nM; on JAK1, 10.5 nM.

On to `N#CCC1(n2cc(-c3ncnc4[nH]ccc34)c3ccccc32)CN(S(=O)(=O)N2CCCC2)C1` [Example 10], for which the results for the IC50 on JAK2, at JAK3 and on JAK1 were 3.5 nM, 67 nM and 7 nM, respectively.

Regarding `CS(=O)(=O)N1CC(CC#N)(n2cc(-c3ncnc4[nH]ccc34)c3ccc(F)c(F)c32)C1` [Example 32, 2-(1-(methylsulfonyl)-3-(5,6-difluoro-3-(7H-pyrrole[2,3-d]pyrimidine-4-yl)-1H-indole-1-yl)azetidine-3-yl)acetonitrile], the IC50 at JAK2 was 6.3 nM; at JAK3, 124 nM; on JAK1 it was 4.5 nM.

As to `CCOc1ccc2c(-c3ncnc4[nH]ccc34)cn(C3(CC#N)CN(S(=O)(=O)CC)C3)c2c1` [Example 59, 2-(1-(ethylsulfonyl)-3-(6-ethoxyl-3-(7H-pyrrole[2,3-d]pyrimidine-4-yl)-1H-indole-1-yl)azetidine-3-yl)acetonitrile], the IC50 came out at 2.8 nM at JAK2, 90 nM on JAK3 and 25.4 nM at JAK1.

Regarding `CCS(=O)(=O)N1CC(CC#N)(n2cc(-c3ncnc4[nH]ccc34)c3ccc(Cl)cc32)C1` [Example 26, 2-(1-(ethylsulfonyl)-3-(6-chloro-3-(7H-pyrrole[2,3-d]pyrimidine-4-yl)-1H-indole-1-yl)azetidine-3-yl)acetonitrile], the figures for the IC50 at JAK2, at JAK3 and at JAK1 were 0.72 nM, 34 nM and 3.5 nM, respectively.

Take `CCS(=O)(=O)N1CC(CC#N)(n2cc(-c3ncnc4[nH]ccc34)c3cc(F)cc(F)c32)C1` [Example 47, 2-(1-(ethylsulfonyl)-3-(5,7-difluoro-3-(7H-pyrrole[2,3-d]pyrimidine-4-yl)-1H-indole-1-yl)azetidine-3-yl)acetonitrile]: the IC50 on JAK2 turned out to be 11.6 nM; on JAK3, 58 nM; at JAK1 it was 30.5 nM.

On to `CCS(=O)(=O)N1CC(CC#N)(n2cc(-c3ncnc4[nH]ccc34)c3ccc(CC#N)cc32)C1` [Example 51, 2-(1-(ethylsulfonyl)-3-(6-ethylcyano-3-(7H-pyrrole[2,3-d]pyrimidine-4-yl)-1H-indole-1-yl)azetidine-3-yl)acetonitrile], for which the results for the IC50 at JAK2, at JAK3 and at JAK1 were 41.6 nM, 172 nM and 45.5 nM, respectively.

The values above are taken from patent US10385056B2, “4-substituted pyrrolo[2,3-d]pyrimidine compound and use thereof” (JIANGSU CAREFREE PHARMACEUTICAL CO., LTD, priority 2014, dated 2019).
